# Where two headings read alike, the source gives them in different places. Marks after values point to notes of the source that are not given here.
# How the values were obtained:
# Solution pH (water) = type: physicochemical
# [1] = Hygroscopicity by Dynamic Vapor Sorption (DVS); type: physicochemical
# Solid stability by HPLC = type: physicochemical; conditions: 8 weeks at 40° C., 60° C. and 80° C.; 7 days at 150° C.; all conditions
# [2] = Stability analysis of the salt (Form 1) under temperature/humidity and photostability conditions; type: physicochemical; conditions: one week at 40° C./0% RH, three weeks at 40° C./75% RH, and photostability conditions
# Excerpt: Fenfluramine HCl is developed as a single polymorph Form 1. A polymorphism and pre-formulation study has been conducted. Under a wide range of solvents and conditions crystalline material is produced of the same polymorph Form 1 based on a well-defined XRPD pattern and a consistent reproducible endotherm by DSC analysis. A summary of the chemophysical properties of Fenfluramine HCl from this study is provided below. Tabulated data includes example diffractograms, DSCs, and micrographs.
# [3] = Holding at approximately 170° C., analysis by XRPD, DSC and 1H NMR; type: physicochemical; conditions: held at approximately 170° C. for several hours
# Description: Holding Fenfluramine HCl at approximately 170° C. for several hours causes a melt and evaporation event to take place with recombination and cooling to provide a white solid.
# [4] = for Parent remaining: 168 h
# [5] = pKa (water) of drug substance
# [6] = Solubility in organic solvents; conditions: 25 °C, organic solvent or mixture
smiles,measurement,setting,value
"CCNC(C)Cc1cccc(C(F)(F)F)c1.Cl (racemic) [Fenfluramine HCl, N-ethyl-α-methyl-3-(trifluoromethyl)-benzeneethanamine hydrochloride (1:1)]",Solution pH (water),Solution pH (water),6.69
same,Hygroscopicity (Dynamic Vapor Sorption (DVS)),[1]; @30% RH,@30% RH: ~0.05%
same,Hygroscopicity (Dynamic Vapor Sorption (DVS)),[1]; @60% RH,@60% RH: ~0.07%
same,Hygroscopicity (Dynamic Vapor Sorption (DVS)),[1]; @90% RH,@90% RH: ~0.20%^a)
same,Solid Stability: new impurities >0.1% by HPLC,Solid stability by HPLC,"150 °C All conditions, no new impurities >0.1% by"
same,Stability of the salt: form and new impurities at 0.1% threshold,[2],input Form 1 has been maintained with no new impurities observed at 0.1% threshold
same,"Change after melt and evaporation event (XRPD, DSC, 1H NMR)",[3],"no change in chemical or physical form, purity, or dissociation"
same,Parent remaining after degradation,[4]; 24 h,94.42%
same,Parent remaining,[4],99.90 parent area %
same,Parent remaining,[4]; buffer,99.73 parent area %
same,solubility,"Aqueous solubility; 0.9% NaCl in water, 25 °C, saline or isotonic",23 mg/mL
same,solubility,"Aqueous solubility; pH 1.73 buffer, 25 °C, pH 1.73, simulated gastric fluid",25.3 mg/mL
same,solubility,"Aqueous solubility; pH 1.73 buffer, 37 °C, pH 1.73, simulated gastric fluid",53.7 mg/mL
same,solubility,"Aqueous solubility; pH 3.43 buffer, 25 °C, pH 3.43, aqueous buffer",29.5 mg/mL
same,solubility,"Aqueous solubility; pH 3.43 buffer, 37 °C, pH 3.43, aqueous buffer",62 mg/mL
same,solubility,"Aqueous solubility; pH 6.41 buffer, 25 °C, pH 6.41, aqueous buffer",37.4 mg/mL
same,solubility,"Aqueous solubility; pH 6.41 buffer, 37 °C, pH 6.41, aqueous buffer",95.6 mg/mL
same,solubility,"Aqueous solubility; water, 25 °C, pH 6.69, water",54.1 mg/mL
same,solubility,"Aqueous solubility; water, 37 °C, pH 6.69, water",71.2 mg/mL
same,pKa,[5],10.2 to 10.4
same,solubility,[6]; dichloromethane,30 to 35 mg/mL
same,solubility,[6]; ethanol,150 mg/mL
same,solubility,"[6]; ethyl acetate, tetrahydrofuran, toluene, acetonitrile",1 to 5 mg/mL
